From patent publication US12351564B2, “NLRP3 modulators” (Zomagen Biosciences Ltd, priority 2019, dated 2025) come the findings set out here.

The structures appear in SMILES notation. Bounds are passed on as bounds.

The subject of this experiment is IL-1b. Put plainly: Mouse BMDM IL-1b Assay. Conditions: Macrophage; C57BL6 bone marrow derived macrophages; 200 ng/mL Ultrapure LPS-B5 3 hours, compound 30 minutes, 5 mM ATP 45 minutes; mouse IL-1b ELISA of supernatant. Format: cell-based. The protocol:
Example 8: Mouse BMDM IL-1b Assay
Mouse bone marrow cells from C57BL6 tibia and femur were culture in complete Isocov's Media supplemented with 20 ng/mL MCSF (BMDM media) at a density of 50 million cells/15 cm Petri dish. Fresh media was changed every 3 days, and bone marrow derived macrophages were collected, washed, and counted on day 7. Cells were seeded into 96 well plates at a density of 5×10^4 cells per well in 100 uL of BMDM media and cultured overnight. The cells were stimulated at 37° C. with 200 ng/mL Ultrapure LPS-B5 for 3 hours before pre-diluted compounds were added. 30 minutes after compound addition, 5 mM ATP was added for the secondary stimulation for 45 minutes. After stimulation, the plates were briefly spun down, and 50 uL of supernatant was harvested from each well. ELISA for mouse IL-1b was performed with 1:10 and 1:100 diluted supernatant using pre-coated kits. IL-1b concentrations were calculated based on pre-titrated standards, and compound inhibition IC50 is generated using the Levenberg Marquardt damped lease-square method.
With `O=C(Nc1c2c(c(F)c3c1CCC3)CCC2)NS(=O)(=O)c1cc2c(o1)C1CCC(C1)C2O` (centres unmarked) [Compound 31, N-((8-fluoro-1,2,3,5,6,7-hexahydro-s-indacen-4-yl)carbamoyl)-4-hydroxy-5,6,7,8-tetrahydro-4H-5,8-methanocyclohepta[b]furan-2-sulfonamide], the IC50 is below 100 nM. Consider `O=C(Nc1c2c(c(Br)c3c1CCC3)CCC2)NS(=O)(=O)c1cc2c(o1)C1CCC(C1)C2O` (centres unmarked) [Compound 17, N-((8-bromo-1,2,3,5,6,7-hexahydro-s-indacen-4-yl)carbamoyl)-4-hydroxy-5,6,7,8-tetrahydro-4H-5,8-methanocyclohepta[b]furan-2-sulfonamide], for which the half-inhibitory concentration (IC50) lay in the range of 100 to 1000 nM. On to `O=C(Nc1c2c(cc3c1CCC3)CCC2)NS(=O)(=O)c1ccc2c(c1)/C(=N\O)C1CCC2CC1` [Compound 35, (Z)-N-((1,2,3,5,6,7-hexahydro-s-indacen-4-yl)carbamoyl)-9-(hydroxyimino)-6,7,8,9-tetrahydro-5H-5,8-ethanobenzo[7]annulene-2-sulfonamide], for which the IC50 lay within 100 to 1000 nM.

Consider `O=C(Nc1c2c(cc3c1CCC3)CCC2)NS(=O)(=O)c1cc2c(o1)C1CCC(C1)C2=NO` (centres unmarked) [Compound 11, N-((1,2,3,5,6,7-hexahydro-s-indacen-4-yl)carbamoyl)-4-(hydroxyimino)-5,6,7,8-tetrahydro-4H-5,8-methanocyclohepta[b]furan-2-sulfonamide], for which the half-maximal inhibitory concentration (IC50) is below 100 nM. Take `CC1(O)c2cc(S(=O)(=O)NC(=O)Nc3c4c(cc5c3CCC5)CCC4)sc2C2CCC1C2` (centres unmarked) [Compound 47, N-((1,2,3,5,6,7-hexahydro-s-indacen-4-yl)carbamoyl)-4-hydroxy-4-methyl-5,6,7,8-tetrahydro-4H-5,8-methanocyclohepta[b]thiophene-2-sulfonamide]: the half-maximal inhibitory concentration (IC50) is below 100 nM. The compound `CC(C)c1cccc(C(C)C)c1CC(=O)NS(=O)(=O)c1cc2c(o1)C1CCC(C1)C2O` (centres unmarked) [Compound 15, 2-(2,6-diisopropylphenyl)-N-((4-hydroxy-5,6,7,8-tetrahydro-4H-5,8-methanocyclohepta[b]furan-2-yl)sulfonyl)acetamide] gave an IC50 of 1000 to 10000 nM. `O=C(Nc1c2c(cc3c1CCC3)CCC2)NS(=O)(=O)c1cc2c(o1)[C@@H]1CC[C@@H](C1)C2O` (stereo partly drawn) [Compound 50, (5S,8R)-N-((1,2,3,5,6,7-hexahydro-s-indacen-4-yl)carbamoyl)-4-hydroxy-5,6,7,8-tetrahydro-4H-5,8-methanocyclohepta[b]furan-2-sulfonamide] returned an IC50 below 100 nM. `CC1(O)c2cc(S(=O)(=O)NC(=O)Nc3c4c(cc5c3CCC5)CCC4)ccc2C2CCC1CC2` (centres unmarked) [Compound 34, N-((1,2,3,5,6,7-hexahydro-s-indacen-4-yl)carbamoyl)-9-hydroxy-9-methyl-6,7,8,9-tetrahydro-5H-5,8-ethanobenzo[7]annulene-2-sulfonamide] registered a concentration for half-maximal inhibition (IC50) of 100 to 1000 nM.

`O=C(Nc1c2c(cc3c1CCC3)CCC2)NS(=O)(=O)c1cc2c(o1)C1CCC(CC1)C2=NO` [Compound 24, N-((1,2,3,5,6,7-hexahydro-s-indacen-4-yl)carbamoyl)-4-(hydroxyimino)-5,6,7,8-tetrahydro-4H-5,8-ethanocyclohepta[b]furan-2-sulfonamide] displayed a concentration for half-maximal inhibition (IC50) below 100 nM. `C[C@]1(O)c2cc(S(=O)(=O)NC(=O)Nc3c4c(cc5c3CCC5)CCC4)oc2[C@@H]2CC[C@H]1C2` [Compound 42, (4R,5S,8R)-N-((1,2,3,5,6,7-hexahydro-s-indacen-4-yl)carbamoyl)-4-hydroxy-4-methyl-5,6,7,8-tetrahydro-4H-5,8-methanocyclohepta[b]furan-2-sulfonamide] displayed a half-maximal inhibitory concentration (IC50) below 100 nM. `CC(C)c1ccc(F)c(C(C)C)c1NC(=O)NS(=O)(=O)c1cc2c(o1)C1CCC(C1)C2(C)O` (centres unmarked) [Compound 36, N-((3-fluoro-2,6-diisopropylphenyl)carbamoyl)-4-hydroxy-4-methyl-5,6,7,8-tetrahydro-4H-5,8-methanocyclohepta[b]furan-2-sulfonamide] displayed an IC50 below 100 nM.

Compound `CC1(O)c2cc(S(=O)(=O)NC(=O)Nc3c4c(c(Cl)c5c3CCC5)CCC4)oc2C2CCC1C2` (centres unmarked) [Compound 20, N-((8-chloro-1,2,3,5,6,7-hexahydro-s-indacen-4-yl)carbamoyl)-4-hydroxy-4-methyl-5,6,7,8-tetrahydro-4H-5,8-methanocyclohepta[b]furan-2-sulfonamide] displayed an IC50 below 100 nM. `CC1(O)c2cc(S(=O)(=O)NC(=O)Nc3c4c(c(F)c5c3CCC5)CCC4)oc2C2CCC1C2` (centres unmarked) [Compound 30, N-((8-fluoro-1,2,3,5,6,7-hexahydro-s-indacen-4-yl)carbamoyl)-4-hydroxy-4-methyl-5,6,7,8-tetrahydro-4H-5,8-methanocyclohepta[b]furan-2-sulfonamide] yielded an IC50 below 100 nM. For the compound `O=C(Nc1c2c(cc3c1CCC3)CCC2)NS(=O)(=O)c1ccc2c(c1)C(O)C1CCC2CC1` (centres unmarked) [Compound 33, N-((1,2,3,5,6,7-hexahydro-s-indacen-4-yl)carbamoyl)-9-hydroxy-6,7,8,9-tetrahydro-5H-5,8-ethanobenzo[7]annulene-2-sulfonamide], the IC50 fell in the range of 100 to 1000 nM.

Compound `CC1(O)c2cc(S(=O)(=O)NC(=O)Nc3c4c(c(Br)c5c3CCC5)CCC4)oc2C2CCC1C2` (centres unmarked) [Compound 18, N-((8-bromo-1,2,3,5,6,7-hexahydro-s-indacen-4-yl)carbamoyl)-4-hydroxy-4-methyl-5,6,7,8-tetrahydro-4H-5,8-methanocyclohepta[b]furan-2-sulfonamide] returned a concentration for half-maximal inhibition (IC50) below 100 nM.

Turning to `O=C(Nc1c2c(cc3c1CCC3)CCC2)NS(=O)(=O)c1cc2c(o1)C1CCC(C1)C2O` (centres unmarked) [Compound 9, N-((1,2,3,5,6,7-hexahydro-s-indacen-4-yl)carbamoyl)-4-hydroxy-5,6,7,8-tetrahydro-4H-5,8-methanocyclohepta[b]furan-2-sulfonamide], the 50% inhibitory concentration (IC50) was below 100 nM. Take `O=C(Nc1c2c(cc3c1CCC3)CCC2)NS(=O)(=O)c1cc2c(s1)C1CCC(C1)C2O` (centres unmarked) [Compound 48, N-((1,2,3,5,6,7-hexahydro-s-indacen-4-yl)carbamoyl)-4-hydroxy-5,6,7,8-tetrahydro-4H-5,8-methanocyclohepta[b]thiophene-2-sulfonamide]: the concentration for half-maximal inhibition (IC50) was below 100 nM. In turn, `CC(C)c1cccc(C(C)C)c1NC(=O)NS(=O)(=O)c1cc2c(o1)C1CCC(C1)C2(C)O` (centres unmarked) [Compound 27, N((2,6-diisopropylphenyl)carbamoyl)-4-hydroxy-4-methyl-5,6,7,8-tetrahydro-4H-5,8-methanocyclohepta[b]furan-2-sulfonamide] came in with an IC50 below 100 nM. `CC1(O)c2cc(S(=O)(=O)NC(=O)Nc3c4c(cc5c3CCC5)CCC4)oc2C2CCC1C2` (centres unmarked) [Compound 6, N-((1,2,3,5,6,7-hexahydro-s-indacen-4-yl)carbamoyl)-4-hydroxy-4-methyl-5,6,7,8-tetrahydro-4H-5,8-methanocyclohepta[b]furan-2-sulfonamide] came in with an IC50 below 100 nM.

Take `CC1(O)c2cc(S(=O)(=O)NC(=O)Nc3c4c(cc5c3CCC5)CCC4)sc2C2CCC1CC2` (centres unmarked) [Compound 45, N-((1,2,3,5,6,7-hexahydro-s-indacen-4-yl)carbamoyl)-4-hydroxy-4-methyl-5,6,7,8-tetrahydro-4H-5,8-ethanocyclohepta[b]thiophene-2-sulfonamide]: the IC50 was below 100 nM.
